# Target: T1, human Werner helicase (WRN-BV08, Uniprot Q14191, amino acids 517-1235 with L1074F point mutation) (Homo sapiens, UniProt Q14191, L1074F)
# T1 construct: Uniprot Q14191, amino acids 517-1235 with L1074F point mutation; TEV-cleavable 8×His (C, cleaved yes); made in house; host or cells: Sf9 insect cells (baculovirus)
# Assay: WRN (BV08) ADP-Glo Assay
# Format: biochemical
# Conditions: 0.15 nM WRN, 5 μM ATP, 0.1 nM DNA duplex, 15 min preincubation, 60 min at 25° C., pH 7.5, 1% DMSO; read-out: ADP-Glo_hWRN_IC50
# Outline: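 Helicase ATPase activity is measured at 25 °C over 60 min using 0.15 nM enzyme, 5 μM ATP and 0.1 nM DNA duplex, final DMSO 1%. ADP production is detected by luminescence, with IC50 derived by curve fitting.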
# T1 sequence (Q14191 with tags, fused parts or gaps L1074F limits assumed): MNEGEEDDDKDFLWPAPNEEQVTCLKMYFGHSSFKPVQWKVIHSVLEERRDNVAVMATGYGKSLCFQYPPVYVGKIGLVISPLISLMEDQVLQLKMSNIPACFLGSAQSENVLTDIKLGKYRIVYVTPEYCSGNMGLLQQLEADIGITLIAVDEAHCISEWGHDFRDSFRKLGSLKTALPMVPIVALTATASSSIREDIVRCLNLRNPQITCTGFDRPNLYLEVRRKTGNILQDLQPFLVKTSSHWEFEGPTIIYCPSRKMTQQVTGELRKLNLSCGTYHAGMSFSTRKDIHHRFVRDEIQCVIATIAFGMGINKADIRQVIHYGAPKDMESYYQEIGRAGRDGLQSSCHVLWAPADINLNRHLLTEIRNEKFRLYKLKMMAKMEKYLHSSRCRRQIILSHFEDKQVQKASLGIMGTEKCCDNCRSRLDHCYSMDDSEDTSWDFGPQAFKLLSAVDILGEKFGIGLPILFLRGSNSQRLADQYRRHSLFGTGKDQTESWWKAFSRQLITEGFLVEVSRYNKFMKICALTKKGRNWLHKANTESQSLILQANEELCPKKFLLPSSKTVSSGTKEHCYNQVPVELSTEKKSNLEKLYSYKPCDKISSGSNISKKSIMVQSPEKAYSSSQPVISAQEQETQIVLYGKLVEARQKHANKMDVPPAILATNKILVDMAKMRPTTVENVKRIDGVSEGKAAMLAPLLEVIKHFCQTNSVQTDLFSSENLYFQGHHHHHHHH
row,Compound,IC50
1,"N#Cc1ccc(CC(=O)N(Cc2ccncc2)C2C=CS(=O)(=O)C2)cc1 (stereo not shown) [I-513, 2-(4-cyanophenyl)-N-(1,1-dioxo-2,3-dihydro-1lambda6-thiophen-3-yl)-N-[(pyridin-4-yl)methyl]acetamide]",> 50 µM
2,"O=C(Cc1ccc2ncccc2c1)N(Cc1ccncc1)C1C=CS(=O)(=O)C1 (stereo not shown) [I-514, N-(1,1-dioxo-2,3-dihydro-1lambda6-thiophen-3-yl)-N-[(pyridin-4-yl)methyl]-2-(quinolin-6-yl)acetamide]",> 50 µM
3,"O=C(Cc1noc2ccccc12)N(Cc1ccncc1)C1C=CS(=O)(=O)C1 (stereo not shown) [I-516, 2-(1,2-benzoxazol-3-yl)-N-(1,1-dioxo-2,3-dihydro-1lambda6-thiophen-3-yl)-N-[(pyridin-4-yl)methyl]acetamide]",> 50 µM
4,"O=C(CCc1ccc(-n2cccc2)cc1)N(Cc1ccncc1)C1C=CS(=O)(=O)C1 (stereo not shown) [I-519, N-(1,1-dioxo-2,3-dihydro-1lambda6-thiophen-3-yl)-N-[(pyridin-4-yl)methyl]-3-[4-(1H-pyrrol-1-yl)phenyl]propanamide]",> 50 µM
5,"O=C(Cc1ccc(-n2cccc2)cc1)N(Cc1ccccc1Cl)C1C=CS(=O)(=O)C1 (stereo not shown) [I-521, N-[(2-chlorophenyl)methyl]-N-(1,1-dioxo-2,3-dihydro-1lambda6-thiophen-3-yl)-2-[4-(1H-pyrrol-1-yl)phenyl]acetamide]",> 50 µM
6,"O=C(Cc1ccc(-n2cccc2)cc1)N(Cc1cc(F)cc(F)c1)C1C=CS(=O)(=O)C1 (stereo not shown) [I-522, N-[(3,5-difluorophenyl)methyl]-N-(1,1-dioxo-2,3-dihydro-1lambda6-thiophen-3-yl)-2-[4-(1H-pyrrol-1-yl)phenyl]acetamide]",> 50 µM
7,"COc1ccccc1CN(C(=O)Cc1ccc(-n2cccc2)cc1)C1C=CS(=O)(=O)C1 (stereo not shown) [I-524, N-(1,1-dioxo-2,3-dihydro-1lambda6-thiophen-3-yl)-N-[(2-methoxyphenyl)methyl]-2-[4-(1H-pyrrol-1-yl)phenyl]acetamide]",> 50 µM
8,"O=C(Cc1ccc(-n2cccc2)cc1)N(C1C=CS(=O)(=O)C1)C(CO)c1ccccc1 (stereo not shown) [I-525, N-(1,1-dioxo-2,3-dihydro-1lambda6-thiophen-3-yl)-N-(2-hydroxy-1-phenylethyl)-2-[4-(1H-pyrrol-1-yl)phenyl]acetamide]",> 50 µM
9,"O=C(C(c1ccc(Cl)cc1)c1ccc(Cl)cc1)N(Cc1ccncc1)C1C=CS(=O)(=O)C1 (stereo not shown) [I-526, 2,2-bis(4-chlorophenyl)-N-(1,1-dioxo-2,3-dihydro-1lambda6-thiophen-3-yl)-N-[(pyridin-4-yl)methyl]acetamide]",> 50 µM
10,"CS(=O)(=O)c1ccc(CC(=O)N(Cc2ccncc2)C2C=CS(=O)(=O)C2)cc1 (stereo not shown) [I-527, N-(1,1-dioxo-2,3-dihydro-1lambda6-thiophen-3-yl)-2-(4-methanesulfonylphenyl)-N-[(pyridin-4-yl)methyl]acetamide]",> 50 µM
11,"O=C(Cc1cccc(-n2cccc2)c1)N(Cc1ccncc1)C1C=CS(=O)(=O)C1 (stereo not shown) [I-528, N-(1,1-dioxo-2,3-dihydro-1lambda6-thiophen-3-yl)-N-[(pyridin-4-yl)methyl]-2-[3-(1H-pyrrol-1-yl)phenyl]acetamide]",> 50 µM
12,"O=C(/C=C/c1ccc(C(F)(F)F)cc1)N(Cc1ccncc1)C1C=CS(=O)(=O)C1 (stereo not shown) [I-529, (2E)-N-(1,1-dioxo-2,3-dihydro-1lambda6-thiophen-3-yl)-N-[(pyridin-4-yl)methyl]-3-[4-(trifluoromethyl)phenyl]prop-2-enamide]",> 50 µM
13,"O=C(/C=C/c1ccccc1)N(Cc1ccncc1)C1C=CS(=O)(=O)C1 (stereo not shown) [I-530, (2E)-N-(1,1-dioxo-2,3-dihydro-1lambda6-thiophen-3-yl)-3-phenyl-N-[(pyridin-4-yl)methyl]prop-2-enamide]",> 50 µM
14,"O=C(Cc1ccc(-n2cnnc2)cc1)N(Cc1ccncc1)C1C=CS(=O)(=O)C1 (stereo not shown) [I-532, N-(1,1-dioxo-2,3-dihydro-1lambda6-thiophen-3-yl)-N-[(pyridin-4-yl)methyl]-2-[4-(4H-1,2,4-triazol-4-yl)phenyl]acetamide]",> 50 µM
15,"O=C(Cc1ccc(-n2cccc2)cc1)N(C1C=CS(=O)(=O)C1)C1CCC1 (stereo not shown) [I-533, N-cyclobutyl-N-(1,1-dioxo-2,3-dihydro-1lambda6-thiophen-3-yl)-2-[4-(1H-pyrrol-1-yl)phenyl]acetamide]",> 50 µM
16,"O=C(Cc1ccc(-n2cccc2)cc1)N(Cc1ccccc1Br)C1C=CS(=O)(=O)C1 (stereo not shown) [I-534, N-[(2-bromophenyl)methyl]-N-(1,1-dioxo-2,3-dihydro-1lambda6-thiophen-3-yl)-2-[4-(1H-pyrrol-1-yl)phenyl]acetamide]",> 50 µM
17,"CC(C)(C)OC(=O)NC(C(=O)N(Cc1ccccc1)C1C=CS(=O)(=O)C1)c1ccc(-n2cccc2)cc1 (stereo not shown) [I-535, tert-butyl N-{[benzyl(1,1-dioxo-2,3-dihydro-1lambda6-thiophen-3-yl)carbamoyl][4-(1H-pyrrol-1-yl)phenyl]methyl}carbamate]",> 50 µM
18,"O=C(Cc1cccc(C(F)(F)F)c1)N(Cc1ccncc1)C1C=CS(=O)(=O)C1 (stereo not shown) [I-536, N-(1,1-dioxo-2,3-dihydro-1lambda6-thiophen-3-yl)-N-[(pyridin-4-yl)methyl]-2-[3-(trifluoromethyl)phenyl]acetamide]",> 50 µM
19,"O=C(c1cnn(Cc2ccccc2)c1)N(Cc1ccncc1)C1C=CS(=O)(=O)C1 (stereo not shown) [I-538, 1-benzyl-N-(1,1-dioxo-2,3-dihydro-1lambda6-thiophen-3-yl)-N-[(pyridin-4-yl)methyl]-1H-pyrazole-4-carboxamide]",> 50 µM
20,"O=C(C1CCCN(c2ccccc2)C1)N(Cc1ccncc1)C1C=CS(=O)(=O)C1 (stereo not shown) [I-539, N-(1,1-dioxo-2,3-dihydro-1lambda6-thiophen-3-yl)-1-phenyl-N-[(pyridin-4-yl)methyl]piperidine-3-carboxamide]",> 50 µM
21,"O=C(Cc1ccc(-n2cccc2)cc1)N(CC12CC(C1)C2)C1C=CS(=O)(=O)C1 (stereo not shown) [I-540, N-({bicyclo[1.1.1]pentan-1-yl}methyl)-N-(1,1-dioxo-2,3-dihydro-1lambda6-thiophen-3-yl)-2-[4-(1H-pyrrol-1-yl)phenyl]acetamide]",> 50 µM
22,"COc1ccc2c(CC(=O)N(Cc3ccncc3)C3C=CS(=O)(=O)C3)c[nH]c2c1 (stereo not shown) [I-541, N-(1,1-dioxo-2,3-dihydro-1lambda6-thiophen-3-yl)-2-(6-methoxy-1H-indol-3-yl)-N-[(pyridin-4-yl)methyl]acetamide]",> 50 µM
23,"O=C1Cc2ccc(CC(=O)N(Cc3ccncc3)C3C=CS(=O)(=O)C3)cc2N1 (stereo not shown) [I-542, N-(1,1-dioxo-2,3-dihydro-1lambda6-thiophen-3-yl)-2-(2-oxo-2,3-dihydro-1H-indol-6-yl)-N-[(pyridin-4-yl)methyl]acetamide]",> 50 µM
24,"O=C(Cc1coc(-c2ccc(F)cc2)n1)N(Cc1ccncc1)C1C=CS(=O)(=O)C1 (stereo not shown) [I-543, N-(1,1-dioxo-2,3-dihydro-1lambda6-thiophen-3-yl)-2-[2-(4-fluorophenyl)-1,3-oxazol-4-yl]-N-[(pyridin-4-yl)methyl]acetamide]",> 50 µM
25,"O=C(Cc1cnn(Cc2ccccc2)c1)N(Cc1ccncc1)C1C=CS(=O)(=O)C1 (stereo not shown) [I-544, 2-(1-benzyl-1H-pyrazol-4-yl)-N-(1,1-dioxo-2,3-dihydro-1lambda6-thiophen-3-yl)-N-[(pyridin-4-yl)methyl]acetamide]",> 50 µM

# Source: patent publication US20260297070A1, “CYCLIC [COMPOUND LEFT OUT] WRN INHIBITORS” (Nimbus Wadjet, Inc., priority 2023, published 2026)
